Key:
Format in all cases: cell-based
Details in all cases: compounds at 50 nM and 500 nM
IKZF3 = target: T1, IKZF3 (Homo sapiens, UniProt Q96SW2+Q9UKT9); experiment: Western blot degradation of IKZF3 in hPBMCs (24 h)
T1 construct: The supernatant was aspirated as the extracted total cell protein; endogenous in cells; host or cells: human peripheral blood mononuclear cells (hPBMCs)
Summary of the method: (§1)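 hPBMCs (1×10^6 cells/mL) were treated with compound at 50 nM and 500 nM for 24 h, lysed in RIPA with protease inhibitors and analysed by SDS-PAGE/Western blot. Band grayscale, normalised to internal control, gave protein remaining (%); DC50 estimated versus DMSO bands.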

GSPT1 = target: T2, GSPT1 (Homo sapiens, UniProt P15170+Q96SW2); experiment: Western blot degradation of GSPT1 in hPBMCs (24 h)
T2 construct: The supernatant was aspirated as the extracted total cell protein; endogenous in cells; host or cells: human peripheral blood mononuclear cells (hPBMCs)
T2 sequence (P15170 whole entry): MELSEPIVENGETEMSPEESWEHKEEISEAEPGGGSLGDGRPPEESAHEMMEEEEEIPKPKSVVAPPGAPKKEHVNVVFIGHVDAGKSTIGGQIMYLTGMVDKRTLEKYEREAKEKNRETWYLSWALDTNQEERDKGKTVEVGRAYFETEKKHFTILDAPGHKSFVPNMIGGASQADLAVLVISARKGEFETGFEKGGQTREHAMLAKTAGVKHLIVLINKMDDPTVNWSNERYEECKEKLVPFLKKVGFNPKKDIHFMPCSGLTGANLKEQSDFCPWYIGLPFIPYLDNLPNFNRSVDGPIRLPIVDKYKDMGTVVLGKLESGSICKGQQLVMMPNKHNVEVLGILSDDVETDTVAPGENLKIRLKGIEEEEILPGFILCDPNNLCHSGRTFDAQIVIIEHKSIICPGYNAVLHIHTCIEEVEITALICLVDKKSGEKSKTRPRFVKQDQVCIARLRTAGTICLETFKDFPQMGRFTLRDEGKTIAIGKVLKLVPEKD
T2 sequence (Q96SW2 whole entry): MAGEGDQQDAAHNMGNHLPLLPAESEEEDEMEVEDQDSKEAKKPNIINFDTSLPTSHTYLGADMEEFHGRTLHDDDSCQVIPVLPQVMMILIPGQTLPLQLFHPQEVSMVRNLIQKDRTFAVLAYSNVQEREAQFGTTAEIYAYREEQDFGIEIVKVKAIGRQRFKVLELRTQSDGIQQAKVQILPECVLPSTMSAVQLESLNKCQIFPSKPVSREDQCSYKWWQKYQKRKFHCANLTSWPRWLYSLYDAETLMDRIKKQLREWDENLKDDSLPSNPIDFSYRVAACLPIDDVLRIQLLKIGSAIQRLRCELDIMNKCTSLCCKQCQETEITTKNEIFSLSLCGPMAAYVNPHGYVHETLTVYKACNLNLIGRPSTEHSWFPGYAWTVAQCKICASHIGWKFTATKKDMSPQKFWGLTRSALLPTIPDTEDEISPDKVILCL
T2 sequence (Q16531 whole entry partner): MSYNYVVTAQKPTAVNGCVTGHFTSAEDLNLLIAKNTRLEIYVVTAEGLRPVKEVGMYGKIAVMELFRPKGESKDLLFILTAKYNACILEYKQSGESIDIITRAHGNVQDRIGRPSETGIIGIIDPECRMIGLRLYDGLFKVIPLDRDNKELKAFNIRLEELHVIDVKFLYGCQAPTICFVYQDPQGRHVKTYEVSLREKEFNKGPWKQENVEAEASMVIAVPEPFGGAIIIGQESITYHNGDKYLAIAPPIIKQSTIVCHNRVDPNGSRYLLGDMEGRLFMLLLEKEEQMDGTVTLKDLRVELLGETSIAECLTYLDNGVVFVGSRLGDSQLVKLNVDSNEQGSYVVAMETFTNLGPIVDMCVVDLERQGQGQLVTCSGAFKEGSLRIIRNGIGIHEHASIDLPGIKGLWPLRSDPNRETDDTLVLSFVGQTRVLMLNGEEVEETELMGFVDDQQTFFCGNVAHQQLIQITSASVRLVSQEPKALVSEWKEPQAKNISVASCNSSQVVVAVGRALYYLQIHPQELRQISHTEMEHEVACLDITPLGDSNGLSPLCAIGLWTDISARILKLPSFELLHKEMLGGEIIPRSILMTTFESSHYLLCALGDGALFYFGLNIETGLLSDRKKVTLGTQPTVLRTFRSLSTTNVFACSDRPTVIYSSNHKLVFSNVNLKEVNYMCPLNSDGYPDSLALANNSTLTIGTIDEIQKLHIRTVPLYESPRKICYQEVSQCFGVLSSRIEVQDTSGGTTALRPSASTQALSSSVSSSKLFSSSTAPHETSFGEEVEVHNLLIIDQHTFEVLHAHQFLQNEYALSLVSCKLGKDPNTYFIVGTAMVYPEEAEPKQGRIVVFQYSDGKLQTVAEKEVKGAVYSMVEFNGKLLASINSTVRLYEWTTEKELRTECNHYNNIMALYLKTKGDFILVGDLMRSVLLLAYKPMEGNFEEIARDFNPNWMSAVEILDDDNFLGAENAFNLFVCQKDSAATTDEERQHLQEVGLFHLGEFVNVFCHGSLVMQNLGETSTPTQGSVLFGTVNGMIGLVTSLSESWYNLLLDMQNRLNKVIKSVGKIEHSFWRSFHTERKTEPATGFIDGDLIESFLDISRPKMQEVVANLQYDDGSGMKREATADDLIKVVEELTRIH
Summary of the method: as §1

IKZF1 = target: T3, IKZF1 (Homo sapiens, UniProt Q13422+Q96SW2); experiment: Western blot degradation of IKZF1 in hPBMCs (24 h)
T3 construct: The supernatant was aspirated as the extracted total cell protein; endogenous in cells; host or cells: human peripheral blood mononuclear cells (hPBMCs)
Summary of the method: as §1

WEE1 = target: T4, WEE1 (Homo sapiens, UniProt P30291+Q96SW2); experiment: Western blot degradation of WEE1 in hPBMCs (24 h)
T4 construct: The supernatant was aspirated as the extracted total cell protein; endogenous in cells; host or cells: human peripheral blood mononuclear cells (hPBMCs)
T4 sequence (P30291 whole entry): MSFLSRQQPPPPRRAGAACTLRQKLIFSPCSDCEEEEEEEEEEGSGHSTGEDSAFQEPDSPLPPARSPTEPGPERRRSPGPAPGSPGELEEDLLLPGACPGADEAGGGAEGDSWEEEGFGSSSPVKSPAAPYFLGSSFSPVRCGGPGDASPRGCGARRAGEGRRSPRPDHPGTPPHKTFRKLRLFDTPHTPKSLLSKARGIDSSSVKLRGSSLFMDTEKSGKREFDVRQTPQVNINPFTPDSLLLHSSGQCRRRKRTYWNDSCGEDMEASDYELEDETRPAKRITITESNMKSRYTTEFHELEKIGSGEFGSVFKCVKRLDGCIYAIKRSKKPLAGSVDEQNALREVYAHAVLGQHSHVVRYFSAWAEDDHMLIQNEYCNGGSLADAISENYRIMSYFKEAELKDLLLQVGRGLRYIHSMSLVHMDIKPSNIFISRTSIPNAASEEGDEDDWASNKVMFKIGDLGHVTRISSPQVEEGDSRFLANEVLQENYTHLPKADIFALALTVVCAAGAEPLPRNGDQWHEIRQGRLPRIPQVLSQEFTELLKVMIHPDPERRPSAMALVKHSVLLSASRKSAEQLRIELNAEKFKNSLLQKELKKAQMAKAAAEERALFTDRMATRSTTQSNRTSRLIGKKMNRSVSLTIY
T4 sequence (Q96SW2 whole entry): as the sequence (Q96SW2 whole entry) above
T4 sequence (Q16531 whole entry partner): as the sequence (Q16531 whole entry partner) above
Summary of the method: as §1

CK1α = target: T5, CK1α (Homo sapiens, UniProt P48729+Q96SW2); experiment: Western blot degradation of CK1α in hPBMCs (24 h)
T5 construct: The supernatant was aspirated as the extracted total cell protein; endogenous in cells; host or cells: human peripheral blood mononuclear cells (hPBMCs)
T5 sequence (P48729 whole entry): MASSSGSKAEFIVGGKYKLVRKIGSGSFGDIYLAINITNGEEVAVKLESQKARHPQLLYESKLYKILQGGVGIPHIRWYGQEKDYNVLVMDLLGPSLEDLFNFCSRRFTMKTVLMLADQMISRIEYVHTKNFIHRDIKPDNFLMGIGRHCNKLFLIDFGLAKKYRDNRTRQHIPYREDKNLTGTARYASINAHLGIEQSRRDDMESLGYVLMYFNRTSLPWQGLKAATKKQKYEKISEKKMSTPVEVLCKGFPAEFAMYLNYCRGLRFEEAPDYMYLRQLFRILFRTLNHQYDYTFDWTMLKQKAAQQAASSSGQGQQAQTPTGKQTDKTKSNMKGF
T5 sequence (Q96SW2 whole entry): as the sequence (Q96SW2 whole entry) above
T5 sequence (Q16531 whole entry partner): as the sequence (Q16531 whole entry partner) above
Summary of the method: as §1

IKZF2 = target: T6, IKZF2 (Homo sapiens, UniProt Q96SW2+Q9UKS7); experiment: Western blot degradation of IKZF2 in hPBMCs (24 h)
T6 construct: The supernatant was aspirated as the extracted total cell protein; endogenous in cells; host or cells: human peripheral blood mononuclear cells (hPBMCs)
T6 sequence (Q9UKS7 whole entry): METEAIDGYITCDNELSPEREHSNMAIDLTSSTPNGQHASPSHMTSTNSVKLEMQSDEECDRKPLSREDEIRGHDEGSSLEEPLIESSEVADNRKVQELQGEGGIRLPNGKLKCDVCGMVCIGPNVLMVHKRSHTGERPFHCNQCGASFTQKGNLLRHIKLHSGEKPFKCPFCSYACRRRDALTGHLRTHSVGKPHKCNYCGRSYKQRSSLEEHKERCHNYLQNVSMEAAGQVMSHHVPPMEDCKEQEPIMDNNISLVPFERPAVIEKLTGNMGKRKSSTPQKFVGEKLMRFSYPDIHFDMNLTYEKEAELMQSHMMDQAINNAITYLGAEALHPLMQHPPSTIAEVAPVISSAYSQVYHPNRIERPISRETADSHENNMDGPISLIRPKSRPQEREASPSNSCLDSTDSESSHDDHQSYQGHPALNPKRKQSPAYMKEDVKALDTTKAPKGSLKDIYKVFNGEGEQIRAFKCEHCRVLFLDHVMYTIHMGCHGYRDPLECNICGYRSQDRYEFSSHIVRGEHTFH
T6 sequence (Q96SW2 whole entry): as the sequence (Q96SW2 whole entry) above
T6 sequence (Q16531 whole entry partner): as the sequence (Q16531 whole entry partner) above
Summary of the method: as §1

T1 sequence (Q9UKT9 whole entry): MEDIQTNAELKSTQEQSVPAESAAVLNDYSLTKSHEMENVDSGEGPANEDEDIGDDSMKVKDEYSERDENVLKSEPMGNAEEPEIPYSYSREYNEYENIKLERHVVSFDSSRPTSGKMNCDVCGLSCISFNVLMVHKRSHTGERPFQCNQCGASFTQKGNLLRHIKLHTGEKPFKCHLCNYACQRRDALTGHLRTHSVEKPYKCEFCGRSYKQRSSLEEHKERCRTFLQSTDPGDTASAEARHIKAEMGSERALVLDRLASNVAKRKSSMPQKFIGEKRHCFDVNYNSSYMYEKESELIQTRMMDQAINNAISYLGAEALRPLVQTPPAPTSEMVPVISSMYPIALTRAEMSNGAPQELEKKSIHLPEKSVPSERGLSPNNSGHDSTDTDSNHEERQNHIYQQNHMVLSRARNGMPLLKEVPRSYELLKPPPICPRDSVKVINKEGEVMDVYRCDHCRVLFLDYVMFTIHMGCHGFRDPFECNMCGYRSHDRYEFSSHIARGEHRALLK
T1 sequence (Q96SW2 whole entry): as the sequence (Q96SW2 whole entry) above
T1 sequence (Q16531 whole entry partner): as the sequence (Q16531 whole entry partner) above

Row | Structure (SMILES) | IKZF3 substrate protein remaining % (IKZF3) | GSPT1 substrate protein remaining % (GSPT1) | IKZF1 substrate protein remaining % (IKZF1) | WEE1 substrate protein remaining % (WEE1) | CK1α substrate protein remaining % (CK1α) | IKZF2 substrate protein remaining % (IKZF2)
1 | Cc1sc2ncnc(N3CCCN(Cc4ccc5c(c4)C(=O)N(N4CCC(=O)NC4=O)C5=O)CC3)c2c1C [GT-08095, 5-((4-(5,6-dimethylthieno[2,3-d]pyrimidin-4-yl)-1,4-diazepan-1-yl)methyl)-2-(2,4-dioxotetrahydropyrimidin-1(2H)-yl)isoindoline-1,3-dione] | B (80%< substrate protein remaining % ≤100%) | B (80%< substrate protein remaining % ≤100%) | B (80%< substrate protein remaining % ≤100%) | A (0% ≤ substrate protein remaining % ≤80%) | A (0% ≤ substrate protein remaining % ≤80%) | B (80%< substrate protein remaining % ≤100%)
2 | O=C1CCN(N2C(=O)c3ccc(CN4CCN(c5ncnc6sc(Br)cc56)CC4)cc3C2=O)C(=O)N1 [GT-08096, 5-((4-(6-bromothieno[2,3-d]pyrimidin-4-yl)piperazin-1-yl)methyl)-2-(2,4-dioxotetrahydropyrimidin-1(2H)-yl)isoindoline-1,3-dione] | B (80%< substrate protein remaining % ≤100%) | A (0% ≤ substrate protein remaining % ≤80%) | B (80%< substrate protein remaining % ≤100%) | A (0% ≤ substrate protein remaining % ≤80%) | A (0% ≤ substrate protein remaining % ≤80%) | B (80%< substrate protein remaining % ≤100%)
3 | O=C1CCN(N2C(=O)c3ccc(CN4CCN(c5ncnc6sc(-c7ccccc7)cc56)CC4)cc3C2=O)C(=O)N1 [GT-08097, 2-(2,4-dioxotetrahydropyrimidin-1(2H)-yl)-5-((4-(6-phenylthieno[2,3-d]pyrimidin-4-yl)piperazin-1-yl)methyl)isoindoline-1,3-dione] | B (80%< substrate protein remaining % ≤100%) | A (0% ≤ substrate protein remaining % ≤80%) | B (80%< substrate protein remaining % ≤100%) | A (0% ≤ substrate protein remaining % ≤80%) | A (0% ≤ substrate protein remaining % ≤80%) | B (80%< substrate protein remaining % ≤100%)
4 | O=C1CCN(N2C(=O)c3ccc(CN4CCN(c5ncnc6scc(-c7ccccc7)c56)CC4)cc3C2=O)C(=O)N1 [GT-08098, 2-(2,4-dioxotetrahydropyrimidin-1(2H)-yl)-5-((4-(5-phenylthieno[2,3-d]pyrimidin-4-yl)piperazin-1-yl)methyl)isoindoline-1,3-dione] | B (80%< substrate protein remaining % ≤100%) | A (0% ≤ substrate protein remaining % ≤80%) | B (80%< substrate protein remaining % ≤100%) | B (80%< substrate protein remaining % ≤100%) | B (80%< substrate protein remaining % ≤100%) | B (80%< substrate protein remaining % ≤100%)
5 | Cc1nc(N2CCN(Cc3ccc4c(c3)C(=O)N(N3CCC(=O)NC3=O)C4=O)CC2)c2c(-c3ccccc3)csc2n1 [GT-08099, 2-(2,4-dioxotetrahydropyrimidin-1(2H)-yl)-5-((4-(2-methyl-5-phenylthieno[2,3-d]pyrimidin-4-yl)piperazin-1-yl)methyl)isoindoline-1,3-dione] | B (80%< substrate protein remaining % ≤100%) | A (0% ≤ substrate protein remaining % ≤80%) | B (80%< substrate protein remaining % ≤100%) | B (80%< substrate protein remaining % ≤100%) | B (80%< substrate protein remaining % ≤100%) | B (80%< substrate protein remaining % ≤100%)
6 | O=C1CCN(N2C(=O)c3ccc(CN4CCN(c5ncnc6sc7c(c56)CCC7)CC4)cc3C2=O)C(=O)N1 [GT-08103, 5-((4-(6,7-dihydro-5H-cyclopenta[4,5]thieno[2,3-d]pyrimidin-4-yl)piperazin-1-yl)methyl)-2-(2,4-dioxotetrahydropyrimidin-1(2H)-yl)isoindoline-1,3-dione] | A (0% ≤ substrate protein remaining % ≤80%) | B (80%< substrate protein remaining % ≤100%) | B (80%< substrate protein remaining % ≤100%) | B (80%< substrate protein remaining % ≤100%) | B (80%< substrate protein remaining % ≤100%) | A (0% ≤ substrate protein remaining % ≤80%)
7 | Cc1nc(N2CCN(Cc3ccc4c(c3)C(=O)N(N3CCC(=O)NC3=O)C4=O)CC2)c2c3c(sc2n1)CCC3 [GT-08104, 2-(2,4-dioxotetrahydropyrimidin-1(2H)-yl)-5-((4-(2-methyl-6,7-dihydro-5H-cyclopenta[4,5]thieno[2,3-d]pyrimidin-4-yl)piperazin-1-yl)methyl)isoindoline-1,3-dione] | A (0% ≤ substrate protein remaining % ≤80%) | A (0% ≤ substrate protein remaining % ≤80%) | B (80%< substrate protein remaining % ≤100%) | A (0% ≤ substrate protein remaining % ≤80%) | B (80%< substrate protein remaining % ≤100%) | A (0% ≤ substrate protein remaining % ≤80%)
8 | O=C1CCN(N2C(=O)c3ccc(CN4CCN(c5ncc6ccsc6n5)CC4)cc3C2=O)C(=O)N1 [GT-08105, 2-(2,4-dioxotetrahydropyrimidin-1(2H)-yl)-5-((4-(thieno[2,3-d]pyrimidin-2-yl)piperazin-1-yl)methyl)isoindoline-1,3-dione] | A (0% ≤ substrate protein remaining % ≤80%) | A (0% ≤ substrate protein remaining % ≤80%) | B (80%< substrate protein remaining % ≤100%) | B (80%< substrate protein remaining % ≤100%) | B (80%< substrate protein remaining % ≤100%) | A (0% ≤ substrate protein remaining % ≤80%)
9 | O=C1CCN(N2C(=O)c3ccc(CN4CCC(c5ncnc6sccc56)CC4)cc3C2=O)C(=O)N1 [GT-08106, 2-(2,4-dioxotetrahydropyrimidin-1(2H)-yl)-5-((4-(thieno[2,3-d]pyrimidin-4-yl)piperidin-1-yl)methyl)isoindoline-1,3-dione] | B (80%< substrate protein remaining % ≤100%) | A (0% ≤ substrate protein remaining % ≤80%) | B (80%< substrate protein remaining % ≤100%) | A (0% ≤ substrate protein remaining % ≤80%) | B (80%< substrate protein remaining % ≤100%) | B (80%< substrate protein remaining % ≤100%)

Reference: patent US20260356819A1, “OXOISOINDOLINYL-SUBSTITUTED […] DERIVATIVE AND USE THEREOF” (GLUETACS THERAPEUTICS (SHANGHAI) CO., LTD., priority 2023, published 2026)
